The record followed here is patent US10028961B2, “Therapeutically active compounds and their methods of use” (AGIOS PHARMACEUTICALS, INC., priority 2013, dated 2018).

One assay has as its system HT1080 cells. The assay is described as follows: Cellular assay for IDH1m R132C inhibitors, 2-HG by LC-MS in HT1080 cells. Conditions: Homo sapiens, HT-1080. Format: cell-based. The essentials:
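HT1080 cells at 5000 cells/well were treated with compound (0.2% DMSO final). After 48 h, 2-HG in the medium was measured by LC-MS. Viability was read by CellTiter-Glo luminescence at 72 h.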

Assay [1] deals with IDH1-R132 homodimer enzyme (R132H) (Homo sapiens (Human), UniProt O75874, R132H). The assay is described as follows: In vitro assay IDH1-R132H homodimer, NADPH depletion assay. Format: biochemical. The method, then: (§1) The following describes the experimental procedures that can be used to obtain data on columns 3 and 6 of Table 4.
Chain of IDH1-R132 homodimer enzyme (R132H) (O75874 whole entry R132H): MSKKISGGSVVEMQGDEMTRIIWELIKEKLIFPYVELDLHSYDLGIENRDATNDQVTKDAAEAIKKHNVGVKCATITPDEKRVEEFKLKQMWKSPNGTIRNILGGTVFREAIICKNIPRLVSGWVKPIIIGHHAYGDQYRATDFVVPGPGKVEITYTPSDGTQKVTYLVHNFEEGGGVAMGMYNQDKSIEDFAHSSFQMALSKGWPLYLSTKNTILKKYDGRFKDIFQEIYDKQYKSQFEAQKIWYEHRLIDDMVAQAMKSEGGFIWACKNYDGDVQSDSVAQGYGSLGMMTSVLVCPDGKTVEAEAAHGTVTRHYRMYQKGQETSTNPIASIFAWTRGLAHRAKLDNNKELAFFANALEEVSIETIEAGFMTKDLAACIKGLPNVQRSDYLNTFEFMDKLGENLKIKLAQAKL
(§2) A test compound is prepared as 10 mM stock in DMSO and diluted to 50× final concentration in DMSO, for a 50 μl reaction mixture. IDH enzyme activity converting alpha-ketoglutarate to 2-hydroxyglutaric acid is measured using a NADPH depletion assay. In the assay the remaining cofactor is measured at the end of the reaction with the addition of a catalytic excess of diaphorase and resazurin, to generate a fluorescent signal in proportion to the amount of NADPH remaining. […] The reaction is started with the addition of 10 μl of Substrate Mix ([…], 5 mM alpha-ketoglutarate, in Assay Buffer) and the mixture is incubated for 90 minutes at room temperature.

The target of another assay is IDH1 R132C (Homo sapiens (Human), UniProt O75874, R132C). Nature of the assay: In vitro assay IDH1 R132C homodimer, NADPH depletion assay. The format is biochemical. As to the method:
as §1, §2
The concentration of NADPH and alpha-ketoglutarate in the Substrate Buffer is 20 μM and 1 mM, respectively.

The target of assay [2] is T1, IDH2 R140Q (Homo sapiens (Human), UniProt P48735, R140Q). Nature of the assay: In vitro assay for IDH2m R140Q inhibitors, cofactor depletion assay, 16 hr preincubation with NADPH/NADP. The note with it: read-out: IDH2 R140Q 16 hr NADPH/NADP IC50; 16 hrs preincubation with enzyme, 5 uM NADPH and 750 uM NADP. The format is biochemical. An excerpt: The following describes the experimental procedures used to obtain data on column 6 of Table 5.
T1 sequence (P48735 40-452 R140Q): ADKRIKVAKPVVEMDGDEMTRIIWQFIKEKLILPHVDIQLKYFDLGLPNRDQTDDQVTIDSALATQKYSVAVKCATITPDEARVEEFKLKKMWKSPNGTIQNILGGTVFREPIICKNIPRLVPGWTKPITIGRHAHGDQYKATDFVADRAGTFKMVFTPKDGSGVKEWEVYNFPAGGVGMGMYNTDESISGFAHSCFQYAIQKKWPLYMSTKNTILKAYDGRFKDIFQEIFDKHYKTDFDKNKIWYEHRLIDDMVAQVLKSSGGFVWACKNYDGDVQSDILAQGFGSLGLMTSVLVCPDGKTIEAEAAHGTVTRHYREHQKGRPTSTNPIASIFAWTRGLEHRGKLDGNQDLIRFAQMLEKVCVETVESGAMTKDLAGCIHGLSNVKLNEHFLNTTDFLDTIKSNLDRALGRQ
The reaction is terminated by the addition of a second enzyme, diaphorase, and a corresponding substrate, resazurin. Diaphorase reduces resazurin to the highly fluorescent resorufin with the concomitant oxidation of NADPH to NADP, both halting the IDH2 reaction by depleting the available cofactor pool and facilitating quantitation of the amount of cofactor remaining after a specific time period through quantitative production of an easily detected fluorophore.
The test compound is then incubated for 16 hrs at room temperature with the enzyme and cofactors before starting the IDH2 reaction with the addition of 10 μl of substrate mix containing 8 mM α-KG (final concentration 1.6 mM) in the buffer described above. After a further 1 hour of incubation at room temperature, the reaction is halted and the remaining NADPH measured through conversion of resazurin to resorufin by the addition of 25 μl Stop Mix (36 μg/ml diaphorase enzyme and 60 μM resazurin; in buffer).

The target in assay [3] is IDH1 wt/IDH1 R132C heterodimer (Homo sapiens (Human), UniProt O75874, R132C). Nature of the assay: In vitro assay for IDH1m R132C inhibitors, IDH1 wt/IDH1 R132C heterodimer, NADPH depletion (diaphorase/resazurin). The format is biochemical. The note with it: NADPH/NADP. The method, then:
The following describes the experimental procedures that can be used to obtain data on columns 2 and 4 of Table 4 and column 2 of Table 5.
In the primary reaction, the reduction of α-KG acid to 2-HG is accompanied by a concomitant oxidation of NADPH to NADP. The amount of NADPH remaining at the end of the reaction time is measured in a secondary diaphorase/resazurin reaction in which the NADPH is consumed in a 1:1 molar ratio with the conversion of resazurin to the highly fluorescent resorufin.
The mixture of compound, enzyme, and cofactor is pre-incubated at room temperature for 1 hr prior to the addition of alpha-ketoglutarate. To perform the secondary reaction, 10 uL of 1× buffer containing 36 μg/ml diaphorase and […] resazurin is added to the primary reaction and incubated for a further 5 minutes at 25° C. Florescence is read on a Spectramax platereader at Ex 544 Em 590. Compounds or compound dilutions are prepared in 100% DMSO concentration and diluted 1:50 into the final reaction. […] IC50s are determined.
IDH1 or IDH2 wildtype (wt) and mutant heterodimers are expressed and purified by methods known in the art. For example, IDH1wt/R132m heterodimer is expressed and purified as follows. Co-expression of IDH1wt-his and IDH1R132C-flag is carried out in sf9 insect cells. Cells (25 g) are resuspended in 250 ml of 50 mM Tirs, 500 mM NaCl, pH7.4, at 4° C. with stirring. Cells are disrupted with 4 passes through an M-Y110 Micro fluidizer (Microfluidics) set to 500 psi, and then centrifuged at 22,000 rcf for 20 min at 4° C. The supernatant is harvested and loaded at 15 cm/h on a Histrap FF 5*1 ml column (GE) which is equilibrated with 50 mM Tirs, 500 mM NaCl, pH7.4. Host cell contaminants are removed by washing the column with equilibration buffer followed by equilibration buffer containing 20 mM imidazole and 60 mM imidazole to baseline. IDH1wt-his homodimer and IDH1wt-his/IDH1R132C-flag are eluted by equilibration buffer containing 250 mM imidazole. Fractions eluted by 250 mM imidazole are pooled together and loaded at 15 cm/h onto a column pre-packed with 10 ml ANTI-FLAG® M2 Affinity Gel (Sigma), the column is equilibrated with 50 mM Tris, 500 mM NaCl, pH7.4. After washing with equilibration buffer, IDH1wt-his/IDH1R132C-flag heterodimer is eluted by equilibration buffer containing flag peptide (0.2 mg/ml). Aliquots of IDH1wt-his/IDH1R132C-flag are flash frozen in liquid N2 and stored at −80° C. Same conditions are used for the purification of IDH1wt-his/IDH1R132H-flag.
(Resazurin is reduced to fluorescent resorufin, in cell work by metabolically active cells.)

Assay [4] addresses IDH1 wt/IDH1 R132H heterodimer (Homo sapiens (Human), UniProt O75874, R132H). The assay is described as follows: In vitro assay for IDH1m R132H inhibitors, IDH1 wt/IDH1 R132H heterodimer, NADPH depletion (diaphorase/resazurin). The format is biochemical. Conditions: IDH1 wt/R132H heterodimer, NADPH/NADP, not saturated; read-out: IDH1 wt/R132H NADPH/NADP IC50 not saturated. The method in brief:
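Purified IDH1wt-his/IDH1R132H-flag heterodimer (sf9 co-expression) pre-incubated 1 hr at room temperature with compound and NADPH before α-KG addition. Remaining NADPH read by diaphorase/resazurin conversion to fluorescent resorufin, 5 min at 25° C. Compounds diluted 1:50 from DMSO; IC50 determined.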

The target of assay [5] is IDH1-R132H homodimer enzyme (Homo sapiens (Human), UniProt O75874, R132H). The assay is described as follows: In vitro assay IDH1-R132H homodimer, NADPH depletion assay with NADPH/NADP preincubation. The format is biochemical. Conditions: 5 μM NADPH and 37.5 μM NADP. The method in brief:
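Conversion of alpha-ketoglutarate to 2-hydroxyglutarate tracked by NADPH depletion. Reaction started with 5 mM alpha-ketoglutarate plus NADPH substrate mix (50 μl total), 60 min at room temperature. Leftover NADPH quantified via diaphorase/resazurin fluorescence.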

The target of assay [6] is T1, IDH2 R140Q. The assay is described as follows: In vitro assay for IDH2m R140Q inhibitors, cofactor depletion assay. The format is biochemical. Conditions: IDH2 R140Q enzyme. The method in brief: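 Remaining cofactor measured fluorimetrically: diaphorase/resazurin Stop Mix […], halting the reaction. Before that, mutant enzyme and compound sat 1 h at RT, then substrate mix (4 μM NADPH, 1.6 mM α-KG) was added for 16 h at RT.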

The subject of assay [7] is U87MG pLVX-IDH2 R140Q-neo cells. The assay is described as follows: U87MG pLVX-IDH2 R140Q-neo cell based assay, 2-HG by LC-MS. The note with it: Homo sapiens, U-87 MG.

A value given as a limit tells only on which side of the number the result lay.

Chain of IDH1 R132C (O75874 whole entry R132C): as the sequence (O75874 whole entry R132H) above, with H132C counted along it
Chain of IDH1 wt/IDH1 R132H heterodimer (O75874 whole entry R132H): as the sequence (O75874 whole entry R132H) above
Chain of IDH1 wt/IDH1 R132H heterodimer (O75874 whole entry, stated change not applied): as the sequence (O75874 whole entry R132H) above, with H132R counted along it
Chain of IDH1 wt/IDH1 R132C heterodimer (O75874 whole entry R132C): as the sequence (O75874 whole entry R132H) above, with H132C counted along it
Chain of IDH1 wt/IDH1 R132C heterodimer (O75874 whole entry, stated change not applied): as the sequence (O75874 whole entry R132H) above, with H132R counted along it
Chain of IDH1-R132H homodimer enzyme (O75874 whole entry R132H): as the sequence (O75874 whole entry R132H) above

With `C[C@H](Nc1nc(N[C@@H](C)C2CC2)nc(-c2cccc(C(F)(F)F)n2)n1)C1CC1` [Compound 33], the IC50 is < 50 nM in the assay with HT1080 cells, < 50 nM in assay [1] and 50 to 100 nM against IDH1 R132C.

Regarding `C[C@@H](Nc1nc(N[C@H](C)C2CCC2)nc(-c2cccc(C(F)(F)F)n2)n1)C1CCC1` [Compound 19], the IC50 (with HT1080 cells; in assay [1]; against IDH1 R132C) was 50 to 100 nM each time.

In the case of `CC(C)(C)OC(=O)N1CCC(Nc2nc(NC3CCC(F)(F)CC3)nc(-c3cccc(C(F)(F)F)n3)n2)CC1` [Compound 274], the IC50 on IDH2 R140Q [2] is 100 to 1000 nM; in [3], 100 to 1000 nM; in assay [4] it was 100 to 1000 nM; in [5] it was > 1000 nM.

As for `FC1(F)CCC(Nc2nc(NC3CCC(F)(F)C3)nc(-c3cccc(C(F)(F)F)n3)n2)C1` (stereo not shown) [Compound 31], the IC50 (in the assay with HT1080 cells; against IDH2 R140Q [6]; in assay [1]; on IDH1 R132C) was < 50 nM in each case.

For `CC(C)[C@@H](C)Nc1nc(N[C@H](C)C(C)C)nc(-c2cccc(C(F)(F)F)n2)n1` [Compound 18], the IC50 is 50 to 100 nM in the assay on HT1080 cells, < 50 nM in assay [1] and 50 to 100 nM at IDH1 R132C.

On to `CC(Nc1nc(N[C@H](C)C2CC2)nc(-c2cccc(C(F)(F)F)n2)n1)c1cccc(F)c1` (stereo partly shown) [Compound 28], for which the IC50 in the assay with HT1080 cells is 50 to 100 nM; in assay [1], 50 to 100 nM; against IDH1 R132C it was 50 to 100 nM; in assay [4], < 50 nM.

`CC(C)(C)Nc1nc(NC(C)(C)C)nc(-c2cccc(C(F)(F)F)n2)n1` [Compound 4]: the IC50 with HT1080 cells is 50 to 100 nM; against IDH2 R140Q [6], < 50 nM; in assay [1], 50 to 100 nM; at IDH1 R132C it was 50 to 100 nM.

As for `C[C@@H](Nc1nc(N[C@H](C)C2CC2)nc(-c2cccc(C(F)(F)F)n2)n1)C1CC1` [Compound 2], the IC50 (in the assay with HT1080 cells; in [7]; on IDH2 R140Q [6]; in assay [1]; on IDH1 R132C) was < 50 nM each time.

For `CC(C)C(C)Nc1nc(NC(C)C(C)C)nc(-c2cccc(C(F)(F)F)n2)n1` (stereo not shown) [Compound 13], the IC50 in the assay with HT1080 cells is < 50 nM; in assay [1], < 50 nM; against IDH1 R132C, 50 to 100 nM.

In the case of `C[C@@H](Nc1nc(NCC(C)(C)C#N)nc(-c2cccc(C(F)(F)F)n2)n1)C1CC1` [Compound 262], the IC50 at IDH2 R140Q [2] is 100 to 1000 nM; in assay [3], 100 to 1000 nM; in assay [4] it was 100 to 1000 nM; in assay [5] it was > 1000 nM.
